Data reported in patent US11945782B2, “Composition and methods of use of tetrahydroisoquinoline small molecules to bind and modulate PCSK9 protein activity” (SRX CARDIO, LLC, priority 2015, dated 2024).

Key:
recombinant PCSK9 [1] = biological target: T1, recombinant PCSK9 (Homo sapiens, UniProt Q8NBP7); experiment: DiI-LDL Uptake Assay in HepG2 cells with recombinant PCSK9; type: cell-based; details: 2.5 ug/mL PCSK9, read-out: Uptake Assay: % Inhibition of 2.5 ug/mL recombinant PCSK9 @ X compound dose; for inhibition at 1.25 µM: 1.25 uM compound; for inhibition at 10 µM: 10 uM compound; for inhibition at 0.313 µM: 0.313 uM compound
Protocol: (§1) The cells were incubated in a 96-well plate for a total of 16 h in the absence or presence of recombinant PCSK9 (final concentration 2.5 ug/ml) protein alone or recombinant PCSK9 protein pre-mixed with indicated concentration of experimental compounds (Cmpd #). After 16 h, DiI-LDL (final concentration 5 ug/ml) was added to the incubation mixtures. After 4 h, cells are stained with Hoechst 33342 for 30 minutes, then rinsed with phosphate buffered saline, and then a final volume of 100 ul phosphate buffered saline was added to each well. The fluorescence was measured (DiI: excitation at 550 nm and emission at 590 nm; Hoechst: excitation at 355 nm, emission at 460 nm). […] The cells were incubated in 24-well plates for a total of 6 h in the absence or presence of recombinant PCSK9 protein (final concentration of 5.0 ug/ml), or in the presence of PCSK9 protein mixed with indicated concentration of experimental compound (Cmpd #). After 6 hours, the cells were released from the plate, stained with anti-LDLR antibody, then rinsed, counterstained with DAN, and then measured by fluorescence activated cell sorting (FACS). The percent recombinant PCSK9 inhibition was calculated as [‘Compound Dose LDLR Fluorescence’-‘5.0 ug/ml PCSK9-treated LDLR Fluorescence’]/[‘PCSK9 Basal LDLR Fluorescence’-‘5.0 ug/ml PCSK9-treated LDLR Fluorescence’]×100%.
Cellular DiI-LDL uptake can be measured using protocols adapted from Benjannet et al., “Effects of the prosegment and pH on the activity of PCSK9: evidence for additional processing events” J Biol Chem. 285(52): 40965-40978 (2010) and “Composition and Methods of Use of Small Molecules as Binding Ligands for the Modulation of Proprotein Convertase Subtilisin/Kexin Type 9 (PCSK9) Protein Activity” (WO2016029037), which are incorporated by reference in their entirety.
Cells, such as HepG2, HuH7, FL83B, or a cell line transfected with a short-hairpin PCSK9 knockdown sequence such as HepG2/shPCSK9, HuH7/shPCSK9, or FL83B/shPCSK9 are plated and cultured at 37° C. for 12-24 h. Culture media is removed and replaced with fresh lipoprotein-depleted culture media supplemented with 5 ug/mL of DiI-LDL (Kalen Biomedical) or lipoprotein-depleted culture media supplemented with 5 ug/mL of Dil-LDL plus a predetermined concentration of recombinant PCSK9, for example a 10 nM final concentration of PCSK9. Lipoprotein-depleted culture media can be composed of DMEM (Invitrogen) with 10% lipoprotein-depleted fetal bovine serum (Kalen Biomedical) and supplemented with penicillin-streptomycin (Life Technologies). Cells are dosed with small molecule test compounds at doses ranging from 0 nM to 100 uM.
Following an incubation period of specified length, such as 6 hours, Hoechst 33342 (AnaSpec) stain is added to the cell media per manufacturer's instructions and incubated for a specified length (e.g., 30 minutes). The lipoprotein-depleted media is removed and cells rinsed three times with phosphate buffered saline. A final volume of phosphate buffered saline is added back to the wells. The DiI fluorescence is measured with a plate reader using an exciting wavelength of 550 nm and the resulting emission at 590 nm is measured. The Hoechst stain fluorescence is measured with a plate reader using an exciting wavelength of 355 nm and the resulting emission at 460 nm is measured.
Cells are analyzed by for both Hoechst stain (DNA content) and DiI-LDL fluorescence. Cells incubated with small molecule compounds that are inhibitors of PCSK9 will be expected to show increased amounts of DiI-LDL fluorescence, relative to control (no compound) specimens, and cells incubated with small molecule compounds that are activators of PCSK9 will be expected to show decreased amounts of DiI-LDL fluorescence relative to control (no compound) specimens.

recombinant PCSK9 [2] = biological target: T1, recombinant PCSK9; experiment: LDLR FACS (flow) Assay in HuH7 cells with recombinant PCSK9; type: cell-based; details: 5.0 ug/mL PCSK9, read-out: LDLR Flow Assay: % Inhibition of 5.0 ug/mL recombinant PCSK9 @ X compound dose; for inhibition at 5 µM: Huh-7, 5 uM compound
Protocol: as §1
LDLR levels can be measured using flow cytometry or fluorescence activated cell sorting (FACS) using protocols adapted from Benjannet et al., “Effects of the prosegment and pH on the activity of PCSK9: evidence for additional processing events” J Biol Chem. 285(52): 40965-40978 (2010) and “Composition and Methods of Use of Small Molecules as Binding Ligands for the Modulation of Proprotein Convertase Subtilisin/Kexin Type 9 (PCSK9) Protein Activity” (WO2016029037), which are incorporated by reference in their entirety.
Cells, such as HepG2, HuH7, FL83B, or a cell line transfected with a short-hairpin PCSK9 knockdown sequence such as HepG2/shPCSK9, HuH7/shPCSK9, or FL,83B/shPCSK9 are plated and cultured at 37° C. for 12-24 h. Culture media is removed and replaced with fresh culture media or culture media plus a predetermined amount of recombinant PCSK9, for example a 10 nM final concentration of PCSK9. Cell culture media can be composed of DMEM (Invitrogen) with 10% fetal bovine serum (Life Technologies) supplemented with penicillin-streptomycin (Life Technologies). Cells are dosed with small molecule test compounds at doses ranging from 0 nM to 100 uM
Following an incubation period of specified length, such as 6 hours, the media is removed and the cells are rinsed three times with a rinse solution (i.e., Dulbecco's phosphate buffered saline (D-PBS, Life Technologies) supplemented with 0.5% bovine serum albumin (BSA, Sigma) and 1 g/L glucose (Sigma)). The fluid is then removed, and cells are released from the plate using TrypLE Express (Life Technologies) per manufacturer's recommend procedures, such as incubation for 5-10 minutes at 37° C. The TyrpLE-Cell suspension is then transferred to 15 mL conical tubes, volume is increased to 2 mL with D-PBS supplemented with 0.5% BSA and […] glucose, and the tubes are centrifuged at 250× gravity for 10 minutes. Following centrifugation, the supernatant is aspirated and the cell pellet is resuspended in 100 uL D-PBS containing 0.5% BSA and […] glucose, and cells are labeled with anti-LDLR antibody per the manufacturer's recommended procedure. The cells are then pelleted by centrifugation, resuspended in 300 uL PBS and counterstained with 4′,6-Diamidino-2-phenylindole (DAPI, Cayman Chemical) as a cell viability marker, other cell viability markers such as 7-aminoactinomycin D (7AAD, Life Technologies) have also been described in the art.
Cells are analyzed for both cell viability marker (dead cells) and LDLR in live cells using a flow cytometer per the manufacturer's operating manual. […]

T1 sequence (Q8NBP7 153-692): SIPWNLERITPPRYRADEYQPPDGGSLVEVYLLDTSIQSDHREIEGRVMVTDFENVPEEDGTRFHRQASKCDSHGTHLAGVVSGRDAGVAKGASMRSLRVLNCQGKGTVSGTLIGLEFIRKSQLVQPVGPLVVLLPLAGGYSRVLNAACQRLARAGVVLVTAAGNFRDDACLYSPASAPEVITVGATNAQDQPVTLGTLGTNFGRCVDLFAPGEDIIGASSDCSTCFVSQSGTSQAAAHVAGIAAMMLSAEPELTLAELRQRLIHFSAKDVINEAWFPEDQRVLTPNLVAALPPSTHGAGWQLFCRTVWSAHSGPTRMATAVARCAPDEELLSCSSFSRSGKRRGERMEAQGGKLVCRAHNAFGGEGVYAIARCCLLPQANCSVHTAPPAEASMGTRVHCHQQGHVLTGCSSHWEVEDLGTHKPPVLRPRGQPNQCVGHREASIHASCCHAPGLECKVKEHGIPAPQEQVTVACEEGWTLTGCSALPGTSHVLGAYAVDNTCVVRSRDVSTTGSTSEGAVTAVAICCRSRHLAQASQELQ

Structure (SMILES)	inhibition at 1.25 µM (recombinant PCSK9 [1])	inhibition at 10 µM (recombinant PCSK9 [1])	inhibition at 0.313 µM (recombinant PCSK9 [1])	inhibition at 5 µM (recombinant PCSK9 [2])	other results
Cc1cc(-c2ccccc2F)cc2c1CCNC2 [Compound 3, 7-(2-fluorophenyl)-5-methyl-1,2,3,4-tetrahydroisoquinoline]	~42%	> 100%			
Cc1cc2c(cc1-c1ccccc1F)CNCC2 [Compound 2, 7-(2-fluorophenyl)-6-methyl-1,2,3,4-tetrahydroisoquinoline]		> 100%	~50%	~19%	
Cc1cc(-c2ccccc2F)cc2c1CCNC2=O [Compound 4, 7-(2-fluorophenyl)-5-methyl-3,4-dihydroisoquinolin-1(2H)-one]				~10%	inhibition at 20 µM (recombinant PCSK9 [1]; 20 µM compound): ~18%
Cc1cc2c(cc1-c1ccccc1F)C(=O)NCC2 [Compound 5, 7-(2-fluorophenyl)-6-methyl-3,4-dihydroisoquinolin-1(2H)-one]	~33%				inhibition at 10 µM (recombinant PCSK9 [2]; Huh-7, 10 uM compound): ~10%
c1ccc(-c2ccc3c(c2)CNCC3)cc1 [Compound 1, 7-phenyl-1,2,3,4-tetrahydroisoquinoline]		> 100%	~45%		inhibition at 0.625 µM (recombinant PCSK9 [2]; Huh-7, 0.625 uM compound): ~10%; inhibition at 1.25 µM (recombinant PCSK9 [2]; Huh-7, 1.25 uM compound): ~15%; inhibition at 20 µM (recombinant PCSK9 [2]; Huh-7, 20 uM compound): ~20%
